In US10420753B2, “Combination therapies for treatment of spinal muscular atrophy” (Indiana University Research and Technology Corporation, priority 2016, dated 2019):

Key:
[1] = system: SMN2 reporter (SMN2-luciferase) in HEK293 cells; assay: SMN2-luciferase reporter assay; assay type: cell-based, human; set-up: % Activation: concentration or dose not given beside the values; conditions: for EC50: Homo sapiens, HEK293; for % Activation: percentage increase over basal expression in DMSO control wells
Description: (§1) In this high throughput screening assay, the SMN promoter was combined with exons 1-6 and an exon 7 splicing cassette in a single construct that should respond to compounds that increase SMN transcription, exon 7 inclusion, or that might stabilize the SMN RNA or protein. A stable clonal HEK293 cell line that expresses the SMN2 reporter was isolated. Particularly, cells were incubated at 37° C. with 5% CO2. HEK-293 cells were cultured in D-MEM (Gibco 11995) with 10% fetal bovine serum (FBS; Atlas) and 1× pen-strep (Gibco 15140). Reporter cell lines containing SMN1, SMN2, or SV40 driven firefly luciferase reporters and a control (renilla luciferase reporter) were selected and maintained in D-MEM with 10% FBS and 1× pen-strep with 200 μg/mL hygromycin B (Invitrogen 10687-010). 3813 and 3814 fibroblasts were cultured in D-MEM (Gibco 11995) with 10% fetal bovine serum (FBS; Atlas) and 1× pen-strep (Gibco 15140).
The HEK293 reporter cell lines were then plated at 50,000 cells per well in 96-well plates and incubated overnight. […] The final DMSO concentration was 0.1%. Luciferase activity was assayed with either SteadyGlo (Promega E2510) or DualGlo (Promega E2920) luciferase using the Pherastar FS (BMG Labtech) plate reader. For detailed assay conditions, see Table 4. All data points were transformed from light units to percentage increase over basal expression in the treated control wells (DMSO concentration as appropriate, usually 0.1%) and expressed as percent activation (FIG. 1A). […]

renilla luciferase = assay: Renilla luciferase control in cycloheximide experiment; assay type: cell-based; conditions: 10 μM compound plus 10 μM cycloheximide
Description: as §1
To investigate the mechanism of action of LDN291-88-1, the HEK293 SMN2 reporter cells were exposed to LDN291-88-1 at a concentration of 10 μM plus 10 μM cycloheximide to block new protein synthesis, or the same concentration of cycloheximide plus DMSO for comparison. Cell lysates were prepared at the times indicated up to 24 hours as in FIGS. 3A & 3B. The amount of SMN-luciferase protein was quantified by luciferase assay and plotted versus time. […]

[2] = system: SMN protein in patient-derived fibroblasts (3813 cells; SMN1-/-SMN2+/+); assay: SMN protein detection in patient fibroblasts by Western blot; assay type: cell-based, human; conditions: 3813 fibroblasts, 48 hours, dose dependent, relative to DMSO control
Description: For detection of SMN protein in patient fibroblasts, 8000 cells per cm^2 were plated 24 hours prior to compound addition. Since SMN is expressed ubiquitously, cells containing even one copy of the human SMN1 gene will mask the effects of compounds on expression from the SMN2 gene. SMN null cells are not viable. The current standard is to use a human cell line derived from a severe SMA patient. The fibroblast strain 3813 is SMN1 null with three copies of SMN2. […] SMN protein levels were analyzed by dose response in quantitative immunoblots with statistical analysis by one-way ANOVA with post-hoc analysis using Dunnett or Bonferroni, as appropriate. […] Quantification of protein was performed with the Fujifilm LAS-4000 Multifunctional Imaging System. The signal intensity was measured for each band on an immunoblot, normalized to the loading control, and the fold increase was determined in relation to the appropriate DMSO-treated control. Treatment of patient-derived fibroblasts (3813 cells; SMN1−/−SMN2+/+) with compound 291-88-1 gave a dose dependent 2-3 fold increase of SMN protein expression as determined by Western blot analysis (FIG. 1B).

[3] = system: total SMN protein in brain extracts; assay: Brain SMN protein in treated mice, Western blot; assay type: in vivo; conditions: once daily subcutaneous or oral for 5 days from PND2, tissues PND7, dose-dependent
Description: Animals were treated once daily (subcutaneous injection or oral) for 5 days, starting on postnatal day 2 (PND) with increasing doses of 291-88-1. On PND7, mice were sacrificed and tissues were harvested. Tissues were harvested from treated animals on PND 7 and compared to tissues from non-transgenic control mice (FVB) and VH (vehicle: PEG:PBS 50:50) treated animals. Brain extracts were assayed for total SMN protein in comparison to the housekeeping genes, actin and GAPDH (FIGS. 14 and 15, respectively). There was a dose-dependent increase in SMN protein levels ranging from 2-3 fold.

SMNΔ7 SMA mice = assay: Survival of SMA mice; assay type: in vivo; conditions: 10 mg/kg IP daily
Description: Compound 291-88-1 was administered either by intraperitoneal (IP) administration into the SMA mice SMNΔ7 FVB.SMNΔ7; SMN2; Smn (Jackson Laboratories 005025). Daily treatment of SMNΔ7 animals with 10 mg/kg (IP) was continued as long as feasible. The lifespan of treated animals was compared to that of untreated animals and vehicle (VH) treated animals (FIG. 13). VH treated animals included treatment with 40% PEG400+60% (10% HP-β-CD in water). […] Treatment with compound 291-88-1 increased median survival to 18.5 days, p<0.0001.

SMILES | EC50 [1] | % Activation [1] | further results
O=C(Nc1nc2cnc(C(F)(F)F)cc2s1)c1cocn1 [Compound 299-54-1] | 1140 nM | 208% | –
O=C(Nc1nc2cnc(C(F)(F)F)cc2s1)c1ccc(F)cc1 [Compound 311-65] | 612 nM | 87.5% | –
O=C(Nc1nc2cnc(C(F)(F)F)cc2s1)c1cccnc1 [Compound 299-16-1] | 154 nM | 177% | –
O=C(Nc1nc2cnc(C(F)(F)F)cc2s1)c1cc[nH]n1 [Compound 324-25-1] | 2040 nM | 178% | –
O=C(Nc1nc2cnc(C(F)(F)F)cc2s1)c1cnsc1 [Compound 324-44-1] | 380 nM | 220% | –
O=C(Nc1nc2cnc(Cl)cc2s1)c1ccccc1 [Compound 299-1-1] | 2020 nM | 154% | –
O=C(Nc1nc2cnc(C(F)(F)F)cc2s1)c1cncnc1 [Compound 301-90-1] | 2700 nM | 170% | –
O=C(Nc1nc2cnc(C(F)(F)F)cc2s1)c1ccsn1 [Compound 324-48-1] | 335 nM | 210% | –
O=C(Nc1nc2ncc(C(F)(F)F)cc2s1)c1ccccc1 [Compound 287-98-2] | 2300 nM | 150% | –
O=C(Nc1nc2cnc(C(F)(F)F)cc2s1)c1cncs1 [Compound 299-93-1] | 142 nM | 140% | –
O=C(Nc1nc2cnc(C(F)(F)F)cc2s1)c1ccccc1 [Compound 291-88-1] | 169 nM | 216% | maximal increase in SMN-luciferase greater than the DMSO control ([1]; 48 hours, 3 μM): 400%; effect on renilla luciferase (renilla luciferase): no effect; increase of SMN protein expression [2]: 2-3 fold; increase in SMN protein levels in brain [3]: 2-3 fold; median survival (SMNΔ7 SMA mice): 18.5 days
O=C(Nc1nc2cnc(C(F)(F)F)cc2s1)c1cscn1 [Compound 311-84] | 620 nM | 270% | –
O=C(Nc1nc2cnc(C(F)(F)F)cc2s1)c1ccncn1 [Compound 299-73-1] | 2680 nM | 162% | –
COc1cc2sc(NC(=O)c3ccccc3)nc2cn1 [Compound 324-2-1] | 675 nM | 150% | –
O=C(Nc1nc2ncc(C(F)(F)F)cc2s1)c1cncs1 [Compound 299-10-1] | 3200 nM | 112% | –
O=C(Nc1nc2cnc(C(F)(F)F)cc2s1)c1nccs1 [Compound 311-85] | 163 nM | 218% | –
O=C(Nc1nc2cnc(C(F)(F)F)cc2o1)c1ccccc1 [Compound 301-62-1] | 1250 nM | 80% | –
O=C(Nc1nc2cnc(C(F)(F)F)cc2s1)c1ncco1 [N-(6-trifluoromethyl)thiazolo[4,5-c]pyridin-2-yl)oxazole-2-carboxamide] | 1300 nM | 74% | –
Cc1cc(C(=O)Nc2nc3cnc(C(F)(F)F)cc3s2)no1 [Compound 324-33-1] | 5400 nM | 110% | –
O=C(Nc1nc2cnc(C(F)(F)F)cc2s1)c1ccccn1 [Compound 299-15-1] | 172 nM | 169.5% | –
O=C(Nc1nc2cnc(C(F)(F)F)cc2s1)c1ccno1 [Compound 324-26-1] | 214 nM | 193% | –
O=C(Nc1nc2ncc(C(F)(F)F)cc2s1)c1ccccn1 [Compound 287-51-1] | 1000 nM | 110% | –
O=C(Nc1nc2cnc(C(F)(F)F)cc2s1)c1ccon1 [Compound 299-55-1] | 245 nM | 245% | –
O=C(Nc1nc2cnc(C(F)(F)F)cc2s1)c1cnco1 [Compound 299-53-1] | 4400 nM | 200% | –
O=C(Nc1nc2cnc(C(F)(F)F)cc2s1)c1ccnnc1 [Compound 299-63-1] | 11300 nM | 163% | –
O=C(Nc1nc2cnc(C(F)(F)F)cc2s1)c1ccns1 [Compound 324-36-1] | 64 nM | 198% | –
O=C(Nc1nc2ncc(C(F)(F)F)cc2s1)c1cscn1 [Compound 299-9-1] | 1220 nM | 154% | –
